The source of these data is patent US9371294B2, “Cycloalkenyl aryl derivatives for CETP inhibitor” (CHONG KUN DANG PHARMACEUTICAL CORP., priority 2011, dated 2016).

Usually IC50 stands for the concentration needed to halve the response being measured.

The target in this assay is T1, cholesteryl ester transfer protein (Homo sapiens, UniProt P11597).
T1 construct: As a source of cholesteryl ester transfer protein, plasma from healthy humans was used; from tissue; host or cells: plasma from healthy humans
T1 sequence (P11597 18-493): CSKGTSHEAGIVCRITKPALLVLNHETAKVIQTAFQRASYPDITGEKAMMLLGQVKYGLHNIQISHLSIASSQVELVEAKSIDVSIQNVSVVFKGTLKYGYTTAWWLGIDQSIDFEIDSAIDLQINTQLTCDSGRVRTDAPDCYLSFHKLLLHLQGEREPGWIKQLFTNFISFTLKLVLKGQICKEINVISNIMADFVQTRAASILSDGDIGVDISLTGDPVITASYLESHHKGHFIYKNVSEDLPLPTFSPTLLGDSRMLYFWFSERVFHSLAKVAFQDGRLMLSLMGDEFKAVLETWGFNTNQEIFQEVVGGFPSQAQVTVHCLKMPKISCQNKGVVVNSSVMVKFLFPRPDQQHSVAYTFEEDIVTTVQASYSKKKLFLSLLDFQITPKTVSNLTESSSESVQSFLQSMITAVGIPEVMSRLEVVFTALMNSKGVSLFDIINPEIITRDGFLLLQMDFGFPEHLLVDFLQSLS
Put plainly: In vitro test for the ability to inhibit cholesteryl ester transfer. The format is biochemical. To be noted: [3H]-cholesteryl oleate transfer from rHDL-agarose to LDL; human plasma as CETP source; 37° C.; 16-10000 nM, duplicate. The text has this:
In Vitro Test for the Ability to Inhibit Cholesteryl Ester Transfer
1. Preparation of Cholesteryl Ester Donor
In order to prepare a cholesteryl ester donor to be used in the test, a radiolabeled recombinant HDL containing [^3H]-cholesteryl oleate (GE healthcare, TRK886, 3.5 μCi/mg of apoA-1) and apoA-1 was synthesized. Then, rHDL-agarose obtained by immobilizing the recombinant HDL with CNBr-activated Sepharose 4B resin (Amersham Biosciences, Sweden) was used in the test.
2. Cholesteryl Ester Transfer Test
As a source of cholesteryl ester transfer protein, plasma from healthy humans was used, and as cholesteryl ester receptor, LDL from healthy humans was used. Each of test compounds was added to be final concentrations of 16, 80, 400, 2000 and 10000 nM and tested in duplicate. In order to test cholesteryl ester transfer, 20 μl of plasma, 50 μl of LDL (0.25 mg/ml) and 50 μl of rHDL-agarose (0.25 mg/ml) were mixed with each other, and a solution of each test compound was added thereto and reacted thereto at 37° C. Then, the reaction solution was centrifuged at 4° C. for 3 minutes, thereby the reaction was stopped. 150 μl of the supernatant was transferred into a 96-well plate for radioactivity measurement, and the radioactivity thereof was measured with a beta-ray detector.
3. Statistical Processing
The ratio of [^3H]-cholesteryl oleate transferred from HDL to LDL was determined, and based on the determined ratio, the IC50 value of each compound was determined using GraphPad Prism 5.0.
Turning to `COc1cc(C(F)(F)F)c(N(C)S(=O)(=O)C(F)(F)F)cc1C1=C(CN2C(=O)O[C@H](c3cc(C(F)(F)F)cc(C(F)(F)F)c3)[C@@H]2C)CC(C)(C)CC1` [Compound 209, N-(5-(2-(((4S,5R)-5-(3,5-bis(trifluoromethyl)phenyl)-4-methyl-2-oxooxazolidin-3-yl)methyl)-4,4-dimethylcyclohex-1-enyl)-4-methoxy-2-(trifluoromethyl)phenyl)trifluoro-N-methylmethanesulfonamide], inhibition was half-maximal at 10 nM (IC50).
As to `COc1cc(C(F)(F)F)c(N(C)C(C)=O)cc1C1=C(CN2C(=O)O[C@H](c3cc(C(F)(F)F)cc(C(F)(F)F)c3)[C@@H]2C)CC(C)(C)CC1` [Compound 210, N-(5-(2-(((4S,5R)-5-(3,5-bis(trifluoromethyl)phenyl)-4-methyl-2-oxooxazolidin-3-yl)methyl)-4,4-dimethylcyclohex-1-enyl)-4-methoxy-2-(trifluoromethyl)phenyl)-N-methylacetamide], the half-maximal inhibitory concentration (IC50) came to 8 nM.
Take `COc1ccc(N(C)c2nc(C(F)(F)F)cs2)cc1C1=C(CN2C(=O)O[C@H](c3cc(C(F)(F)F)cc(C(F)(F)F)c3)[C@@H]2C)CC(C)(C)CC1` [Compound 212, (4S,5R)-5-(3,5-bis(trifluoromethyl)phenyl)-3-((2-(2-methoxy-5-(methyl(4-(trifluoromethyl)thiazol-2-yl)amino)phenyl)-5,5-dimethylcyclohex-1-enyl)methyl)-4-methyloxazolidin-2-one]: the half-maximal inhibitory concentration (IC50) worked out at 80 nM.
For the compound `COc1cc(F)c(N(C)C(C)=O)cc1C1=C(CN2C(=O)O[C@H](c3cc(C(F)(F)F)cc(C(F)(F)F)c3)[C@@H]2C)CC(C)(C)CC1` [Compound 215, N-(5-(2-(((4S,5R)-5-(3,5-bis(trifluoromethyl)phenyl)-4-methyl-2-oxooxazolidin-3-yl)methyl)-4,4-dimethylcyclohex-1-enyl)-2-fluoro-4-methoxyphenyl)-N-methylacetamide], half-maximal inhibition (IC50) was put at 20 nM.
For the compound `COc1cc(F)c(OCC(F)(F)F)cc1C1=C(CN2C(=O)O[C@H](c3cc(C(F)(F)F)cc(C(F)(F)F)c3)[C@@H]2C)CC(C)(C)CC1` [Compound 222, (4S,5R)-5-(3,5-bis(trifluoromethyl)phenyl)-3-((2-(4-fluoro-2-methoxy-5-(2,2,2-trifluoroethoxy)phenyl)-5,5-dimethylcyclohex-1-enyl)methyl)-4-methyloxazolidin-2-one], the half-maximal inhibitory concentration (IC50) is 40 nM.
For `COc1cc2c(cc1C1=C(CN3C(=O)O[C@H](c4cc(C(F)(F)F)cc(C(F)(F)F)c4)[C@@H]3C)CC(C)(C)CC1)OCO2` [Compound 223, (4S,5R)-5-(3,5-bis(trifluoromethyl)phenyl)-3-((2-(6-methoxybenzo[d][1,3]dioxol-5-yl)-5,5-dimethylcyclohex-1-enyl)methyl)-4-methyloxazolidin-2-one], the half-inhibitory concentration (IC50) worked out at 100 nM.
With `COc1cc(C(F)(F)F)c(N(C)C(=O)C(F)(F)F)cc1C1=C(CN2C(=O)O[C@H](c3cc(C(F)(F)F)cc(C(F)(F)F)c3)[C@@H]2C)CC(C)(C)CC1` [Compound 227, N-(5-(2-(((4S,5R)-5-(3,5-bis(trifluoromethyl)phenyl)-4-methyl-2-oxooxazolidin-3-yl)methyl)-4,4-dimethylcyclohex-1-enyl)-4-methoxy-2-(trifluoromethyl)phenyl)-2,2,2-trifluoro-N-methylacetamide], the IC50 amounted to 140 nM.
`COc1cc(F)c(C(C)C)cc1C1=C(CN2C(=O)O[C@H](c3cc(C(F)(F)F)cc(C(F)(F)F)c3)[C@@H]2C)CN(C)CC1` [Compound 231, (4S,5R)-5-(3,5-bis(trifluoromethyl)phenyl)-3-((4-(4-fluoro-5-isopropyl-2-methoxyphenyl)-1-methyl-1,2,5,6-tetrahydropyridin-3-yl)methyl)-4-methyloxazolidin-2-one] gave a half-inhibitory concentration (IC50) of 700 nM.
As for `CCc1cc(OC)c(C2=C(CN3C(=O)O[C@H](c4cc(C(F)(F)F)cc(C(F)(F)F)c4)[C@@H]3C)CC(C)(C)CC2)cc1N(C)C(C)=O` [Compound 234, N-(5-(2-(((4S,5R)-5-(3,5-bis(trifluoromethyl)phenyl)-4-methyl-2-oxooxazolidin-3-yl)methyl)-4,4-dimethylcyclohex-1-enyl)-2-ethyl-4-methoxyphenyl)-N-methylacetamide], the figure is 20 nM; as for `COc1cc(F)c(C2CC2)cc1C1=C(CN2C(=O)O[C@H](c3cc(C(F)(F)F)cc(C(F)(F)F)c3)[C@@H]2C)CC(C)(C)CC1` [Compound 237, (4S,5R)-5-(3,5-bis(trifluoromethyl)phenyl)-3-((2-(5-cyclopropyl-4-fluoro-2-methoxyphenyl)-5,5-dimethylcyclohex-1-enyl)methyl)-4-methyloxazolidin-2-one], 9 nM.
As for `COc1cc(F)c(OC(C)C)cc1C1=C(CN2C(=O)O[C@H](c3cc(C(F)(F)F)cc(C(F)(F)F)c3)[C@@H]2C)CC(C)(C)CC1` [Compound 241, (4S,5R)-5-(3,5-bis(trifluoromethyl)phenyl)-3-((2-(4-fluoro-5-isopropoxy-2-methoxyphenyl)-5,5-dimethylcyclohex-1-enyl)methyl)-4-methyloxazolidin-2-one], the IC50 is 390 nM.
As for `COc1ccc(N(C)C(=O)C(C)(C)OC(C)=O)cc1C1=C(CN2C(=O)O[C@H](c3cc(C(F)(F)F)cc(C(F)(F)F)c3)[C@@H]2C)CC(C)(C)CC1` [Compound 243, 1-((3-(2-(((4S,5R)-5-(3,5-bis(trifluoromethyl)phenyl)-4-methyl-2-oxooxazolidin-3-yl)methyl)-4,4-dimethylcyclohex-1-enyl)-4-methoxyphenyl)(methyl)amino)-2-methyl-1-oxopropan-2-yl acetate], the figure is 9 nM; as for `COc1ccc(N(C)C(=O)C(C)(C)O)cc1C1=C(CN2C(=O)O[C@H](c3cc(C(F)(F)F)cc(C(F)(F)F)c3)[C@@H]2C)CC(C)(C)CC1` [Compound 244, N-(3-(2-(((4S,5R)-5-(3,5-bis(trifluoromethyl)phenyl)-4-methyl-2-oxooxazolidin-3-yl)methyl)-4,4-dimethylcyclohex-1-enyl)-4-methoxyphenyl)-2-hydroxy-N,2-dimethylpropanamide], 20 nM; as for `COc1cc(F)c(C(C)C)cc1C1=C(CN2C(=O)O[C@H](c3cc(C(F)(F)F)cc(C(F)(F)F)c3)[C@@H]2C)CN(C(F)(F)F)CC1` [Compound 245, (4S,5R)-5-(3,5-bis(trifluoromethyl)phenyl)-3-((4-(4-fluoro-5-isopropyl-2-methoxyphenyl)-1-(trifluoromethyl)-1,2,5,6-tetrahydropyridin-3-yl)methyl)-4-methyloxazolidin-2-one], 810 nM.
Turning to `COc1cc(C)c(N(C)C(C)=O)cc1C1=C(CN2C(=O)O[C@H](c3cc(C(F)(F)F)cc(C(F)(F)F)c3)[C@@H]2C)CC(C)(C)CC1` [Compound 249, N-(5-(2-(((4S,5R)-5-(3,5-bis(trifluoromethyl)phenyl)-4-methyl-2-oxooxazolidin-3-yl)methyl)-4,4-dimethylcyclohex-1-enyl)-4-methoxy-2-methylphenyl)-N-methylacetamide], the midpoint of inhibition, the IC50, lay at 1 nM.
The compound `COc1cc(C)c(N(C)S(=O)(=O)C(F)(F)F)cc1C1=C(CN2C(=O)O[C@H](c3cc(C(F)(F)F)cc(C(F)(F)F)c3)[C@@H]2C)CC(C)(C)CC1` [Compound 251, N-(5-(2-(((4S,5R)-5-(3,5-bis(trifluoromethyl)phenyl)-4-methyl-2-oxooxazolidin-3-yl)methyl)-4,4-dimethylcyclohex-1-enyl)-4-methoxy-2-methylphenyl)trifluoro-N-methylmethanesulfonamide] had an IC50 of 690 nM.
